We go through 98 compounds from ChEMBL document CHEMBL3507680, “University of Dundee, Gates Library screen for HepG2 cell viability”.

The structures appear in SMILES notation.

A short description of the series: Human HepG2 cell viability assay in 384 well format. Format: toxicity, cell-based. Set-up: dose 125 nL, time 70.5 hour; cytotoxicity at 70.5 h: concentration not given beside the values. The note with it: HepG2 cells, read-out: Inhibition.
For `CCn1c(C2CCNCC2)nn(CCn2ccc(C)n2)c1=O`, the cytotoxicity at 70.5 h is -21.2%.

Consider `Cc1noc(C)c1CN1C(=O)[C@H]2CC[C@@H]1CN(C(=O)c1cscn1)C2`, for which the cytotoxicity at 70.5 h is -2.09%.

With `COCCn1ccc(NC(=O)Nc2ccccn2)n1`, the cytotoxicity at 70.5 h is -10%.

In the case of `N#Cc1ccccc1CNC(C(=O)N1CCOCC1)c1ccccc1` (stereo not drawn), the cytotoxicity at 70.5 h is -1.56%.

Turning to `N[C@@H]1CCCN(C(=O)Cc2c[nH]c3ccccc23)[C@H]1c1ccccc1F`, the cytotoxicity at 70.5 h was 23.2%.

As for `O=C(CNC(=O)c1ccoc1)NC(c1ccc(F)cc1)C(F)(F)F` (stereo not drawn), the cytotoxicity at 70.5 h was -3.8%.

Take `CCOc1nc2cnccc2n(CC(=O)NCc2ccc(C)cc2)c1=O`: the cytotoxicity at 70.5 h is -9.89%.

Regarding `CN1CCC(N(C)C(=O)c2cnn(-c3ccccc3Br)c2N)CC1`, the cytotoxicity at 70.5 h worked out at 0.0189%.

For `CC(C)(CO)Nc1c(NCc2ccncc2)c(=O)c1=O`, the cytotoxicity at 70.5 h was -9.44%.

Consider `O=S(=O)(CCN1CCCC1Cn1cncn1)c1ccccc1` (stereo not drawn), for which the cytotoxicity at 70.5 h is -1.96%.

Take `Cc1nc(C)c(CC(=O)N2C[C@@H](C(=O)O)[C@H](c3ccccc3C)C2)s1`: the cytotoxicity at 70.5 h is -17%.

Regarding `CN(C)C(=O)[C@@H]1C[C@@H]2CCN(Cc3ccc4c(c3)OCO4)C[C@@H]2O1`, the cytotoxicity at 70.5 h amounted to 1.53%.

As to `CC(C)N1CCCn2nc(C(=O)NCCc3c[nH]cn3)cc2C1`, the cytotoxicity at 70.5 h is 19.8%.

For the compound `CCn1cc(CNCc2ccc(C(=O)OC)cc2)c(C)n1`, the cytotoxicity at 70.5 h was -0.911%.

Consider `COc1ccc(S(=O)(=O)N2CCC(O)(CN(C)C)C2)cc1` (stereo not drawn), for which the cytotoxicity at 70.5 h is -4.76%.

As to `COCCc1nnc(NC(=O)CCCc2ccccc2)o1`, the cytotoxicity at 70.5 h was -6.03%.

Turning to `N#Cc1ccc(CN(CC(N)=O)C2CCCC2)c(Br)c1`, the cytotoxicity at 70.5 h is -6.26%.

In the case of `CCn1cc(S(=O)(=O)N2CCN(S(=O)(=O)c3ccc(Br)s3)CC2)c(C)n1`, the cytotoxicity at 70.5 h was -9.33%.

On to `CNC(=O)[C@@H]1C[C@H](n2cc(-c3ccc(CN4CC=CC4)cc3)nn2)CN1`, for which the cytotoxicity at 70.5 h was 27%.

For the compound `CCOc1cc(C(=O)N(C)C)ccc1NC(=O)c1ccsc1`, the cytotoxicity at 70.5 h is -9.1%.

For `Cc1noc(CN(C)CC2CCN(CCO)CC2)n1`, the cytotoxicity at 70.5 h is 5%.

With `CCNC(=O)NC1CCCN(c2ccc(C)cc2)C1=O` (stereo not drawn), the cytotoxicity at 70.5 h was found to be 0.44%.

For the compound `CC(C)NC(=O)[C@H]1C[C@@H]2CN(C(=O)NCCc3ccccc3)C[C@H]1O2`, the cytotoxicity at 70.5 h is 8.95%.

With `COCCOc1cccc(CNCc2ccc(-n3cncn3)nc2)c1`, the cytotoxicity at 70.5 h is -4.01%.

As for `COCC(Nc1ncnc2c1CCNCC2)c1ccccn1` (stereo not drawn), the cytotoxicity at 70.5 h was -12.5%.

Consider `Cc1cc(C)c2ncc(C#N)c(N3CCS(=O)(=O)CC3)c2c1`, for which the cytotoxicity at 70.5 h is -7.23%.

On to `c1csc(C(CNCc2cccc3c2OCO3)N2CCOCC2)c1` (stereo not drawn), for which the cytotoxicity at 70.5 h is -13.2%.

On to `O=C(CC1CC1)N1CC[C@H]2OCC[C@@]2(COc2ncccc2F)C1`, for which the cytotoxicity at 70.5 h was -21.5%.

For `COCCN1CC2(CCCN(C(=O)NCCc3cccs3)C2)CCC1=O` (stereo not drawn), the cytotoxicity at 70.5 h was determined as 4.85%.

Take `O=C(Nc1cc(-c2ccccc2)on1)N1CCN(CCO)CC1`: the cytotoxicity at 70.5 h was -6.53%.

For `CN1CCCCC1CC(=O)Nc1ccc2ncn(C)c2c1` (stereo not drawn), the cytotoxicity at 70.5 h turned out to be 13.5%.

With `COCCOc1ncccc1C(=O)N1CCCC(n2ccnc2C)C1` (stereo not drawn), the cytotoxicity at 70.5 h was -13.5%.

Consider `CNC(=O)C1(C)CCCN1Cc1cnn(C)c1C` (stereo not drawn), for which the cytotoxicity at 70.5 h is -8.11%.

For `CN(C)S(=O)(=O)N1CC[C@]2(O)CCN(CCc3cccc(F)c3)C[C@@H]2C1`, the cytotoxicity at 70.5 h is -11.2%.

Regarding `CC(NS(=O)(=O)N(C)C(C)C)C(=O)N(C)C` (stereo not drawn), the cytotoxicity at 70.5 h was -4.6%.

Consider `CC(C)CN(Cc1ccc(-n2cncn2)cc1)Cc1ccccn1`, for which the cytotoxicity at 70.5 h is -10.8%.

As for `CCOc1ccc(NC(=O)Cn2cc(I)cn2)cc1`, the cytotoxicity at 70.5 h is -18.2%.

`COCCCN1CCN(c2ncnc3nc(C)cc(C)c23)CC1`: the cytotoxicity at 70.5 h was -4.17%.

Take `CCN1CC(C(=O)N(C)Cc2cc3cc(F)ccc3[nH]2)CC1=O` (stereo not drawn): the cytotoxicity at 70.5 h was -0.954%.

For the compound `CCN(CC)c1ncccc1CNCc1ccc(-c2ccn[nH]2)s1`, the cytotoxicity at 70.5 h was -6.37%.

For the compound `CNCCc1nc2cc(Cl)ccc2[nH]1`, the cytotoxicity at 70.5 h was 16.5%.

As to `CCN(CC)c1ccc(C(=O)N2C[C@@H]3CC[C@H](C2)N(CCOC)C3)cc1`, the cytotoxicity at 70.5 h came to 23.2%.

In the case of `Cc1ccc(-c2noc(CC[C@@H]3CCCN4CCCC[C@H]34)n2)nn1`, the cytotoxicity at 70.5 h is -3.37%.

With `N#CCCN(Cc1ccccn1)C(=O)Nc1cccnc1`, the cytotoxicity at 70.5 h was -7.42%.

In the case of `O=C(O)CSc1nnc(-c2ccn[nH]2)n1-c1ccccc1C(F)(F)F`, the cytotoxicity at 70.5 h was -3.95%.

In the case of `COc1cccc(CC(=O)N2CCN(c3cccc(C)c3)C(C)C2)c1` (stereo not drawn), the cytotoxicity at 70.5 h came to 0.115%.

Regarding `CCc1noc(CN2CCCN(C(C)=O)CC2)n1`, the cytotoxicity at 70.5 h is -6.42%.

Regarding `CCc1cc(NCCNC(=O)c2cccnc2)n2nc(C)c(C)c2n1`, the cytotoxicity at 70.5 h was 21%.

On to `O=C(O)c1cccnc1CN1CCCCC1CCc1cccc(O)c1` (stereo not drawn), for which the cytotoxicity at 70.5 h came to 9.13%.

In the case of `COc1ccc2[nH]cc(C(=O)N3CC[C@H](CO)[C@@H](O)C3)c(=O)c2c1`, the cytotoxicity at 70.5 h is -6.72%.

As for `CN1CCN(C(=O)c2cnc3c(cnn3C3CCCC3)c2)CC1`, the cytotoxicity at 70.5 h is -10%.

Regarding `Cc1csc(CCNC(=O)C2CCCN(C3CCOCC3)C2)n1` (stereo not drawn), the cytotoxicity at 70.5 h was -11.1%.

For the compound `CCOc1nnc(CN2CCCC(c3nc4ccccc4[nH]3)C2)s1` (stereo not drawn), the cytotoxicity at 70.5 h is -3.56%.

Consider `CSCC(=O)Nc1ncc(I)cc1C`, for which the cytotoxicity at 70.5 h worked out at 11.6%.

Consider `Cc1ccccc1C(C)NC(=O)c1ccc(=O)n(C)c1` (stereo not drawn), for which the cytotoxicity at 70.5 h was -4.64%.

`c1ccn2c(C3CCCN3Cc3nc(C4CC4)no3)nnc2c1` (stereo not drawn): the cytotoxicity at 70.5 h was -21.8%.

For the compound `CCCc1nc(C(=O)N(C)Cc2cc(CC)no2)cs1`, the cytotoxicity at 70.5 h was determined as 0.552%.

Regarding `CCOc1ccc(C#N)cc1NC(=O)N1CCC(N2CCCC2)C1` (stereo not drawn), the cytotoxicity at 70.5 h was -9.59%.

For the compound `CN(Cc1nnc2ccccn12)C(=O)CCC1CCCC1`, the cytotoxicity at 70.5 h is -8.63%.

Turning to `Cc1csc(CNC(=O)NCCc2ccc3c(c2)OCCO3)n1`, the cytotoxicity at 70.5 h was 20.8%.

As to `O=C1C[C@H]2[C@@H](CCN2C(=O)Cc2cccs2)N1CC1CC1`, the cytotoxicity at 70.5 h is -13.5%.

Consider `CC1CCN(S(=O)(=O)c2cccnc2)c2ccccc2S1` (stereo not drawn), for which the cytotoxicity at 70.5 h was -3.73%.

Regarding `CS(=O)(=O)N[C@H]1CCO[C@]2(CCN(C(=O)c3ccccn3)C2)C1`, the cytotoxicity at 70.5 h is -3.91%.

In the case of `CN1CCN(c2ccncc2S(=O)(=O)N2CCCCC2)CC1`, the cytotoxicity at 70.5 h was 0.146%.

Turning to `O=S(=O)(N1CCN(CC2CC2)CC1)N1CCCC1c1ccco1` (stereo not drawn), the cytotoxicity at 70.5 h is -5.9%.

In the case of `Cc1cc(C(=O)NCCN2CCCCC2)nn1C(C)(C)C`, the cytotoxicity at 70.5 h was -18%.

On to `Cc1c(Br)cccc1C(=O)NC(C)CN1CCCC1=O` (stereo not drawn), for which the cytotoxicity at 70.5 h was found to be 1.84%.

Consider `CNC(=O)[C@H]1C[C@H]2OCC[C@H]2N(Cc2ccc(F)cc2)C1`, for which the cytotoxicity at 70.5 h was -4.52%.

For `CNS(=O)(=O)c1ccc(C(=O)N2CCCC(n3cccn3)C2)cc1` (stereo not drawn), the cytotoxicity at 70.5 h was -8.29%.

For `Cc1noc(C)c1CN1CCN(Cc2nccn2C)CC1`, the cytotoxicity at 70.5 h is -4.67%.

As to `O=C1C(NS(=O)(=O)c2ccc(F)cc2F)CCN1Cc1ccccc1` (stereo not drawn), the cytotoxicity at 70.5 h was -7.99%.

On to `Cc1cc(C2CCCN(CC(=O)N3CCCc4ccccc43)C2)n[nH]1` (stereo not drawn), for which the cytotoxicity at 70.5 h is -9.66%.

In the case of `CC1(C)CN(C(=O)CC2CCS(=O)(=O)CC2)C[C@]1(C)O`, the cytotoxicity at 70.5 h was -4.68%.

Turning to `O=C(c1ccccc1Cl)N1CC[C@H](O)[C@@H](N2CCOCC2)CC1`, the cytotoxicity at 70.5 h is -4.63%.

On to `CC(C)c1nccc(CN(C)Cc2cnn(-c3ccccc3)c2)n1`, for which the cytotoxicity at 70.5 h came out at 26.7%.

In the case of `CCN(C(c1cccnc1)c1ccc2c(c1)CCO2)S(C)(=O)=O` (stereo not drawn), the cytotoxicity at 70.5 h is -4.03%.

On to `O=C(COCC1CC1)N1CCCC1c1nc(-c2ccccc2F)c[nH]1` (stereo not drawn), for which the cytotoxicity at 70.5 h is 2.15%.

As to `CCC(=O)N1CCC(Cc2cnc(Nc3cnccn3)cn2)CC1`, the cytotoxicity at 70.5 h is -11.1%.

Regarding `CN(C)C(=O)COCC1C[C@@H]2OCCN(Cc3ccco3)[C@H]2C1` (stereo partly drawn), the cytotoxicity at 70.5 h was -15.5%.

Consider `CC(=O)c1cccc(NC(=O)CN2CCCCC2C2OCCO2)c1` (stereo not drawn), for which the cytotoxicity at 70.5 h is -1.12%.

Turning to `O=C(Nc1cnccn1)[C@@H]1CC[C@@H]2[C@@H](CCN2Cc2nccs2)O1`, the cytotoxicity at 70.5 h is -4.62%.

`COc1cccc(CN(C)C(=O)CCC(=O)c2ccccc2)c1OC`: the cytotoxicity at 70.5 h is -9.57%.

As for `CC(=O)NC[C@@]1(COc2cnccn2)C[C@@H](O)[C@@H](O)C1`, the cytotoxicity at 70.5 h is -3.14%.

Consider `O=C(NCc1cccnc1)NCC(O)c1ccccc1C(F)(F)F` (stereo not drawn), for which the cytotoxicity at 70.5 h is -9.13%.

As for `Cc1cnn(C2CCCN(C(=O)c3ccc4c(c3)CCC4)C2)c1` (stereo not drawn), the cytotoxicity at 70.5 h was -6.05%.

Turning to `COc1cccc(C(CO)NC(=O)Cc2ccc(F)c(Br)c2)c1` (stereo not drawn), the cytotoxicity at 70.5 h was -3.64%.

Take `CC(C)CCNC(=O)NC(C)c1nncn1C` (stereo not drawn): the cytotoxicity at 70.5 h worked out at 22%.

In the case of `CCn1ccnc1CN1CCN(CCOc2cccc(C#N)c2)CC1`, the cytotoxicity at 70.5 h is -5.28%.

`CCC(C)n1cnc(S(=O)(=O)N(C)C)c1` (stereo not drawn): the cytotoxicity at 70.5 h was found to be 14.5%.

As to `CC(C)n1nc2c(cc1=O)CN(CCOc1ccc(C#N)cc1)CC2`, the cytotoxicity at 70.5 h is -12.5%.

With `CCN(c1ccsc1C(=O)N1CCSCC1)S(=O)(=O)c1ccccc1`, the cytotoxicity at 70.5 h is 6.6%.

On to `Cn1cc(C(=O)Nc2ccc(CN3CCOCC3)cn2)cn1`, for which the cytotoxicity at 70.5 h was -4.82%.

In the case of `CN(Cc1cccnc1)CC1CN(C(N)=O)Cc2nccn2C1` (stereo not drawn), the cytotoxicity at 70.5 h was -2.38%.

In the case of `O=C1CNc2ncnc(Nc3cnn(Cc4cccc(F)c4)c3)c2N1`, the cytotoxicity at 70.5 h was -16.6%.

For the compound `Cc1cncnc1C1CCN(C(=O)C2(C)CCCCN2C)CC1` (stereo not drawn), the cytotoxicity at 70.5 h was -4.92%.

Regarding `CCc1ccc(CN2C[C@@H](C)C3(CCN(CC(=O)N(C)C)C3=O)C2)o1` (stereo partly drawn), the cytotoxicity at 70.5 h is -6.86%.

Take `CCn1cnnc1CNC(=O)C1CCCN(Cc2cccc(F)c2)C1` (stereo not drawn): the cytotoxicity at 70.5 h was -14.4%.

On to `CCn1ccnc1CN1CCN(Cc2cccnc2)CC1C` (stereo not drawn), for which the cytotoxicity at 70.5 h is 7.86%.
